The values below come from ChEMBL document CHEMBL6134873, “Identification of Novel Cyclobutane-Based Derivatives as Potent Acetyl-CoA Carboxylase Allosteric Inhibitors for Nonalcoholic Steatohepatitis Drug Discovery” (J Med Chem, 2025).

Series [1] can be described thus: in vivo. The following applies: Sprague-Dawley, rat, liver, po, 3 mg/kg.
Description: Drug concentration in liver of Sprague-Dawley rat at 3 mg/kg, po measured after 4 hrs by LC-MS/MS analysis
Series [2] in a line: Protein binding in rat plasma. Type of series: ADME, cell-free. The following applies: read-out: PPB (converted).
Series [3] has as its target T1, Cytochrome P450 2B6 (Homo sapiens, UniProt P20813).
T1 sequence (P20813 whole entry): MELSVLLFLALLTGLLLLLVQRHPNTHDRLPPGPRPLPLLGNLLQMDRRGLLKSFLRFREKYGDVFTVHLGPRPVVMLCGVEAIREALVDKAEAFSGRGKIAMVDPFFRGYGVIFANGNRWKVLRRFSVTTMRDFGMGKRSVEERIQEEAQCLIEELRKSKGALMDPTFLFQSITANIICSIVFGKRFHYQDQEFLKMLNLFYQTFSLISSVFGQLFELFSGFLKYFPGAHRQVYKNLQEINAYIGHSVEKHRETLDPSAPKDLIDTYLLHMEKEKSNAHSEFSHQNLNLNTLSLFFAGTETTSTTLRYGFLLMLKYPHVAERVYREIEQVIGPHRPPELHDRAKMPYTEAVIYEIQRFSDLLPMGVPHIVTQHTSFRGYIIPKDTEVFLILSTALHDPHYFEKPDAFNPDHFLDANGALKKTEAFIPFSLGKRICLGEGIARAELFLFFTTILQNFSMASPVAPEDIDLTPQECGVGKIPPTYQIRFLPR
The experiment in a line: Inhibition of CYP2B6 (unknown origin). Format: ADME.

Series [4] in a line: Biodistribution in liver of 12 hr-fasted male wild-type Sprague-Dawley rat at 3 mg/kg, po measured after 4 hrs by LC-MS/MS analysis. The settings on record: in vivo. Type of series: ADME, organism-based.
Series [5] concerns the target T2, Cytochrome P450 1A2 (Homo sapiens, UniProt P05177).
T2 sequence (P05177 whole entry): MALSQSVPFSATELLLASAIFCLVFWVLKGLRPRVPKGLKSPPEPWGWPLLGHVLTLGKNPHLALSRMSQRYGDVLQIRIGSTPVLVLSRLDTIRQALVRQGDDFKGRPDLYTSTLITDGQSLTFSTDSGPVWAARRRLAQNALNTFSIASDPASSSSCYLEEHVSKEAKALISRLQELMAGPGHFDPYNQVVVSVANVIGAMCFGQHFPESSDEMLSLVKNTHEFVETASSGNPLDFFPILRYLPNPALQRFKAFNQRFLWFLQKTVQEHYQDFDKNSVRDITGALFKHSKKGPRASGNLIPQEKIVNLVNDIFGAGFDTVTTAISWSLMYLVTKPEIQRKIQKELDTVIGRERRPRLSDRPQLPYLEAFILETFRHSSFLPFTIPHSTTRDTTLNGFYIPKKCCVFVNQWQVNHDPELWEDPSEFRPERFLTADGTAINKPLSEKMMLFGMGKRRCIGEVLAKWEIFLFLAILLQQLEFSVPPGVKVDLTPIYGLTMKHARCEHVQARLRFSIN
The experiment in a line: Inhibition of CYP1A2 (unknown origin). Format: ADME.

Series [6] in a line: Protein binding in dog plasma. Format: ADME, cell-free, Canis lupus familiaris. The settings on record: read-out: PPB (converted).
The nature of series [7]: Intrinsic clearance in dog liver microsomes. Type of series: ADME, Canis lupus familiaris, Microsome. The following applies: read-out: CLH. Background: Liver microsomes are a subcellular fraction often used to study metabolism.
Series [8] concerns the target Cytochrome P450 2C19 (Homo sapiens, UniProt P33261). The experiment in a line: Inhibition of CYP2C19 (unknown origin). Format: ADME.
A short description of series [9]: Suppression of Col1A1 mRNA expression in TGF-beta1-treated human LX2 cells incubated for 24 hrs by qPCR analysis. Type of series: functional, cell-based. The settings on record: LX-2, 24 h. For orientation: Quantitative PCR measures a nucleic acid by following its amplification.
The nature of series [10]: in vivo. The settings on record: Sprague-Dawley, rat, plasma, po, 3 mg/kg.
Description: Drug concentration in plasma of Sprague-Dawley rat at 3 mg/kg, po measured after 0.25 hrs by LC-MS/MS analysis
Series [11] is described as follows: Intrinsic clearance in human liver microsomes. Type of series: ADME, Microsome. The settings on record: read-out: CLH.
Series [12] in a line: Cmax in Sprague-Dawley rat at 3 mg/kg, po measured for 0.25 to 24 hrs by LC-MS/MS analysis. Format: ADME, organism-based. The settings on record: in vivo, time 0.25-24 hrs.
Series [13] in a line: Mutagenicity in Salmonella typhimurium by mini-Ames test. Format: toxicity. The following applies: salmonella enterica subsp. enterica serovar typhimurium. (In general: The Ames test detects mutagens through reverse mutation in bacteria.)
The nature of series [14]: Stability of compound assessed as (1S,3s)-3-(6-carbamoyl-1-((R)-2-(2-methoxyphenyl)-2-((tetrahydro-2H-pyran-4-yl)oxy)ethyl)-5-methyl-2,4-dioxo-1,4-dihydrothieno[2,3-d]pyrimidin-3(2H)-y l)-1-methylcyclobutane-1-carboxylic acid metabolite formation by measuring retention time. Format: ADME.

Cytochrome P450 2C19, sequence (P33261 whole entry): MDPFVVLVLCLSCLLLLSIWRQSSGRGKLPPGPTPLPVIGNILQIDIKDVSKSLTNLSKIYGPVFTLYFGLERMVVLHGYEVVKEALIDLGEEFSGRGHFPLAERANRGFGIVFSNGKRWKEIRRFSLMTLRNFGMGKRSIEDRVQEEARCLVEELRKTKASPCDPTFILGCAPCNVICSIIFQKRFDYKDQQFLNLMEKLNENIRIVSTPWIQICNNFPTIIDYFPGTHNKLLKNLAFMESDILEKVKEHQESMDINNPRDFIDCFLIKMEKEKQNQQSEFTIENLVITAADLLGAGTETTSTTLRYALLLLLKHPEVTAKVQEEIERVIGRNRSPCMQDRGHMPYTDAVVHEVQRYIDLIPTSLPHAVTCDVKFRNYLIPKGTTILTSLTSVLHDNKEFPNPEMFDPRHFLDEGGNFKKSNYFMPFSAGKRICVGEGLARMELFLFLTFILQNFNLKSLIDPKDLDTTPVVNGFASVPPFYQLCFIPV

What is called IC50 is the point on the concentration scale where inhibition reaches its midpoint. A low value points to higher potency. One may read the Cmax as the highest concentration seen after dosing. In turn, `COc1ccccc1[C@H](Cn1c(=O)n([C@H]2C[C@@](C)(C(=O)O)C2)c(=O)c2c(C)c(-c3ncco3)sc21)OC1CCOCC1` yielded a concentration at 4 h in series [1] of 4830 ng/mL. Moreover, the results for the fraction unbound in series [2] and in series [6] were 0.029 and 0.054, respectively. Moreover, the IC50 is more than 30 µM in series [3], more than 30 µM in series [5], more than 30 µM in series [8] and 0.507 µM in series [9]. Moreover, in series [4], the Drug uptake result was “Active”. For the same molecule, the results for the CLint scaled in series [7] and in series [11] were less than 13.8 mL/min/kg and less than 8.6 mL/min/kg, respectively. The same molecule gave a concentration at 0.25 h in [10] of 13.7 ng/mL. In series [12], the highest level (Cmax) was 38 ng/mL. Also, in series [13], the Activity entry is “Non-toxic”. Also, the Retention_time in [14] is recorded as 7.64 min.
